Source: patent US20100022611A1 (THE UNIVERSITY COURT OF THE UNIVERSITY OF ABERDEEN, priority 2007, published 2010)
Where two headings read alike, the source gives them in different places.

Key:
CB1 receptor [1] = molecular target: T1, CB1 receptor (Mus musculus, UniProt P47746); test: Electrically-evoked contractions of mouse isolated vas deferens, antagonism of CP55940; set-up: The isolated vas deferens was then removed from the mouse by cutting through its prostatic end; from tissue; host or cells: isolated vas deferens of male albino MF1 mice
T1 sequence (P47746 whole entry): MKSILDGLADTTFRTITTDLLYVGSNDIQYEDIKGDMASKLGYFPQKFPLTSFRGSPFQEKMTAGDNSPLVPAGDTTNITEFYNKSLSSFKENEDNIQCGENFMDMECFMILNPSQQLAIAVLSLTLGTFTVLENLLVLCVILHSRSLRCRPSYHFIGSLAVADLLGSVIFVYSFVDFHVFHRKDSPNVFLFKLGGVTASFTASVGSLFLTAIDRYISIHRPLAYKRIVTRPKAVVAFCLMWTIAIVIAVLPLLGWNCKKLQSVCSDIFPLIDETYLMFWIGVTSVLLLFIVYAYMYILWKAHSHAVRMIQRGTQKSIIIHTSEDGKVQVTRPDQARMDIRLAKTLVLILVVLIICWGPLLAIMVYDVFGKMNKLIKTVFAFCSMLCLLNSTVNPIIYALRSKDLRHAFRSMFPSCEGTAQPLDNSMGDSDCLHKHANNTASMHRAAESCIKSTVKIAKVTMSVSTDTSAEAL
From the text: (§1) The vas deferens (or ductus deferens) is a muscular tube, approximately 3 mm in diameter and 30 cm in length, connecting the left and right epididymis to the ejaculatory ducts in order to move sperm. It is bound by connective tissue with an ample supply of blood vessels, nerves, and lymphatics. This in vitro bioassay exploits the expression of CB1 receptors on the presynaptic nerve terminals of this tubular structure.
(§2) The animals used in the study were male albino MF1 mice bred and were housed six to eight per-cage and were kept in a temperature-controlled room which was maintained on a fixed light-dark cycle. All mice were given free access to food and water. Subjects used in the study were a minimum of four weeks of age. Each mouse was stunned by striking the back of the head and killed by dislocation of the neck (cervical vertebrae). Following the killing, the mouse body weight was determined. A transverse incision, approximately of 1.5 cm, was made in the skin with the aid of dissection scissors. A similar-sized transverse incision was made through the lower abdominal wall. […] This was used to identify the vas deferens, which is attached to the testis via the epididymis. Gripping the epididymis with forceps, the vas deferens was cut free first from the testis and then from the connective tissue. The isolated vas deferens was then removed from the mouse by cutting through its prostatic end. This procedure was repeated on the right testis. It was important that throughout the latter two stages of this dissection, care was taken to ensure the vas deferens was not overstretched. In addition to their vas deferens, these animals were euthanized for use of their brain and small intestine by fellow researchers in different research fields. This minimisation of the number of animals euthanized complied with the European Community guidelines.
(§3) During transit, the two isolated vas deferens from each mice were kept moist in a glass vial filled with warm modified Mg^2+-free Krebs' solution. Before setting the tissue up in an organ bath, further removal of connective tissue, mesentery, and the epididymis was performed; cotton thread was tied securely to both end of the vas deferens.
(§4) The one-tailed thread was attached to the Pioden UF1 isometric transducer (Harvard Apparatus) and the two-tailed thread hung out of the bottom of the bath. The latter served as an anchor point for applying tension. […] Contractile activity was recorded using the isometric transducer and the output monitored by a computer connected to the data recording and analysis system (MacLab or PowerLab). The tissues were then ready for stimulation. […]

CB1 receptor [2] = molecular target: T1, CB1 receptor; test: [35S]GTPγS binding assay in mouse brain membranes, antagonism of CP55940; type: biochemical; set-up: Whole brains from eight adult male mice were dissected and suspended in centrifugation buffer; from tissue; host or cells: mouse whole brain membranes
From the text: (§5) The [^35S] GTPγS binding assay is simply a means of measuring G protein activation following agonist occupation of a GPCR. The significance of replacing endogenous GTP with radiolabeled [^35S] GTPγS is two-fold. […] GTPγS. Secondly, as with any radiolabelling, the aim is to allow quantitative analysis of a selected molecular species, in this case the degree of agonist binding can be gauged by measuring the subsequent levels of radioactivity in the desired tissue.
(§6) A vehicle control was an essential aspect of the experiment. […] The vehicle is made up of 10 μL of DMSO and 990 μL of binding buffer, resulting in the assay containing 0.1% vehicle.
(§7) Buffer; [^35S] […] The GTPγS binding assay was initiated by the addition of the [^35S] GTPγS. The assay was incubated at 37° C. in a water bath for 1 hour. The assay was terminated by addition of ice-cold Tris/BSA buffer and rapid vacuum filtration using a 24-well Brandel (cell harvester) and glass-fibre filters that have been soaked in Tris/BSA buffer at 4° C. for 24 hours. Each well was washed 6 times with 1.2 mL of Tris/BSA buffer. The filters were then oven dried for 1 hour. The sections of filter papers were then separated and placed in individual vials, to which 5 mL of scintillation fluid was added. The filter papers were soaked in the scintillation fluid for 1 hour before the radioactivity in each vial was quantified by liquid scintillation spectrometry.
(§8) The data was fitted to a sigmoidal concentration-response curve using GraphPad Prism 4. Significance was defined by a one-sample t-test (GraphPad Prism 4), which compared mean % stimulation values S.E.M. to the basal binding level, 0.0% stimulation.

CB1 receptor [3] = molecular target: T1, CB1 receptor; test: Electrically-evoked contractions of isolated mouse vas deferens, compound alone; set-up: The isolated vas deferens was then removed from the mouse by cutting through its prostatic end; from tissue; host or cells: isolated vas deferens of male albino MF1 mice; settings: 1 μM, tested alone
From the text: as §1, §2, §3, §4

cannabinoid CB1 receptor = molecular target: T2, cannabinoid CB1 receptor (Mus musculus, UniProt P47746); test: Mouse brain competition binding assay, [3H]CP55940 displacement
T2 construct: Whole brains from eight adult male mice were dissected and suspended in centrifugation buffer; from tissue; host or cells: mouse whole brain membranes
T2 sequence (P47746 whole entry): as above
Experimental: The competition binding assay is a […] radioligand binding assay, which determines the affinity of a given compound for a specific receptor site, in this instance, the cannabinoid CB1 receptor. Mouse brain membranes were the chosen tissue due to their high expression of CB1 receptors.
Whole brains from eight adult male mice were dissected and suspended in centrifugation buffer. The brains were then homogenised with a Polytron Homogeniser prior to centrifugation at 1,600 RCF, 4° C. for 10 minutes. Centrifugation produced a supernatant, which was collected, and then the remaining pellet was re-suspended in centrifugation buffer and centrifuged as before. All supernatants were combined, and centrifuged at 28,000 RCF, 4° C. for a further 20 minutes. The supernatant was then discarded and the pellet re-suspended in Buffer A before incubation for 10 minutes at 37° C. The membrane suspension was then centrifuged at RCF 23,000, 4° C. for 20 minutes. The pellet was then re-suspended in Buffer A and incubated for 40 minutes at room temperature. The suspension was then centrifuged for 15 minutes at RCF 11,000, 4° C., and the pellet was then re-suspended in Buffer B. Finally a Protein Assay was carried out to determine the protein content of the mouse membrane preparation. The membrane samples were then made up into 1 mL aliquots of 1 mg/mL protein concentration and stored at −80° C. The samples were removed and defrosted when they were required.
The competition binding assay utilizes standard binding buffer, comprising:
10 μL of 1 mM stock of CP55940 in DMSO was added to 990 μL of binding buffer.
This was essential to obtain a value for specific binding, which is defined as the difference between the binding that occurs in the presence and absence of […] unlabelled CP55940.
as §7, with “[^3H]” for “[^35S]”, “competition” for “GTPγS binding”, “membranes.” for “[^35S] GTPγS.”, “had” for “have”
Data were fitted to a one-site competition curve using GraphPad Prism 4.

CB1 receptor [4] = molecular target: CB1 receptor (Homo sapiens, UniProt P21554); test: [35S]GTPγS binding, compound alone, 24 hours FBS-starved CB1 CHO cells; type: biochemical; settings: 1 nM to 10 μM
Sequence of CB1 receptor (Homo sapiens, UniProt P21554) (P21554 whole entry): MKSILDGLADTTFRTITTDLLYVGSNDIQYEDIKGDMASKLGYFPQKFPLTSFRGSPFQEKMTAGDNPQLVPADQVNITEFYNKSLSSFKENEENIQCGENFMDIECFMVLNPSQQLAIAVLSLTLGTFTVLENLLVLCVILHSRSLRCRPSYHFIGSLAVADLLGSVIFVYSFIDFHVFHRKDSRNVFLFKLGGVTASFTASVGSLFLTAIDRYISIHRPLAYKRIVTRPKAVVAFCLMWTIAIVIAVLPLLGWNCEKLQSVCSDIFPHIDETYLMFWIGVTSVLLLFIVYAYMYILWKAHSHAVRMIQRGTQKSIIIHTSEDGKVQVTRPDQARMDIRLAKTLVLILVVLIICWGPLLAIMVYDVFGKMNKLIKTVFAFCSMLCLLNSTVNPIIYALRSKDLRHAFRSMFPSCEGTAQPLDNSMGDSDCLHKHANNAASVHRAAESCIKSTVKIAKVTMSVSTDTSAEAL
From the text: as §5, §6, §7, §8
The vertical lines indicate S.E.M. (standard error of the mean) (*= P<0.05, **= P<0.01, ***= P<0.001, one-sample t-test) (n=4).

CB1 receptor [5] = molecular target: T1, CB1 receptor; test: [35S]GTPγS binding, compound alone (Table 2, Function); type: biochemical; set-up: from tissue
From the text: as §5, §6, §7, §8

[6] = patients, clinical trials; cited from earlier work
[7] = mouse brain membranes, [3H]CP55940 0.7 nM, read-out: Ki (nM) [affinity] Mouse Brain [3H]CP55940 Displacement

| SMILES | Ki (cannabinoid CB1 receptor; [7]) [nM] | Function Mouse Brain [35S]GTPγS Alone (CB1 receptor [5]; compound alone) | Ki (cannabinoid CB1 receptor) [nM] | further results |
| --- | --- | --- | --- | --- |
| Cc1c(C(=O)CC2CCCCC2)nn(-c2ccc(Cl)cc2Cl)c1-c1ccc(Cl)cc1 [ABD395] | 3.78 | Neutral antagonist | – | Shift in the log concentration response curve for CP55940, vas deferens contraction (CB1 receptor [1]): right-ward shift; Shift in the log concentration response curve for CP55940, [35S]GTPγS (CB1 receptor [2]): right-ward shift; Effect on electrically-evoked contractions of isolated mouse vas deferens (CB1 receptor [3]): neither inhibited nor significantly enhanced; Effect on [35S]GTPγS binding, compound alone (CB1 receptor [4]): only a small increase |
| Cc1c(C(=O)CC2CCCCC2)nn(-c2ccc(Cl)cc2Cl)c1-c1ccc(Br)cc1 [ABD399] | – | Neutral antagonist | 12.3 | Shift in the log concentration response curve for CP55940, vas deferens contraction (CB1 receptor [1]): right-ward shift; Shift in the log concentration response curve for CP55940, [35S]GTPγS (CB1 receptor [2]): right-ward shift; Effect on electrically-evoked contractions of isolated mouse vas deferens (CB1 receptor [3]): neither inhibited nor significantly enhanced; Effect on [35S]GTPγS binding, compound alone (CB1 receptor [4]): no reduction |
| Cc1c(C(O)CC2CCCCC2)nn(-c2ccc(Cl)cc2Cl)c1-c1ccc(Br)cc1 (stereo not drawn) [ABD402, 1-[5-(4-Bromophenyl)-1-(2,4-dichlorophenyl)-4-methylpyrazol-3-yl]-2-cyclohexylethanol] | – | Neutral antagonist | 32.3 | Shift in the log concentration response curve for CP55940, vas deferens contraction (CB1 receptor [1]): right-ward shift; Shift in the log concentration response curve for CP55940, [35S]GTPγS (CB1 receptor [2]): right-ward shift; Effect on electrically-evoked contractions of isolated mouse vas deferens (CB1 receptor [3]): neither inhibited nor significantly enhanced; Effect on [35S]GTPγS binding, compound alone (CB1 receptor [4]): no reduction |
| Cc1c(C(=O)Cc2ccccc2)nn(-c2ccc(Cl)cc2Cl)c1-c1ccc(Cl)cc1 [ABD406] | 24.2 | Neutral antagonist | – | Shift in the log concentration response curve for CP55940, vas deferens contraction (CB1 receptor [1]): right-ward shift; Shift in the log concentration response curve for CP55940, [35S]GTPγS (CB1 receptor [2]): right-ward shift; Effect on electrically-evoked contractions of isolated mouse vas deferens (CB1 receptor [3]): neither inhibited nor significantly enhanced; Effect on [35S]GTPγS binding, compound alone (CB1 receptor [4]): no reduction |
| Cc1cccc(CC(=O)c2nn(-c3ccc(Cl)cc3Cl)c(-c3ccc(Cl)cc3)c2C)c1 [ABD434] | – | – | 7.42 | Function Mouse Brain [35S]GTPγS Alone (CB1 receptor [5]): Neutral antagonist |
| Cc1c(C(=O)Cc2ccc(F)cc2)nn(-c2ccc(Cl)cc2Cl)c1-c1ccc(Cl)cc1 [ABD436] | 7.15 | Neutral antagonist | – | – |
| Cc1ccc(C(=O)c2nn(-c3ccc(Cl)cc3Cl)c(-c3ccc(Cl)cc3)c2C)cc1C [ABD437] | – | – | 14.2 | Function Mouse Brain [35S]GTPγS Alone (CB1 receptor [5]): Neutral antagonist |
| COc1cccc(C(=O)c2nn(-c3ccc(Cl)cc3Cl)c(-c3ccc(Br)cc3)c2C)c1 [ABD438] | – | – | 7.7 | Function Mouse Brain [35S]GTPγS Alone (CB1 receptor [5]): Neutral antagonist |
| COc1cccc(CC(=O)c2nn(-c3ccc(Cl)cc3Cl)c(-c3ccc(Br)cc3)c2C)c1 [ABD439] | 19.7 | Neutral antagonist | – | – |
| Cc1ccc(CC(=O)c2nn(-c3ccc(Cl)cc3Cl)c(-c3ccc(Br)cc3)c2C)cc1 [ABD440] | 27.1 | Neutral antagonist | – | – |
| Cc1c(C(=O)c2cccc(C(F)(F)F)c2)nn(-c2ccc(Cl)cc2Cl)c1-c1ccc(Cl)cc1 [ABD449] | – | – | 64.8 | Function Mouse Brain [35S]GTPγS Alone (CB1 receptor [5]): Neutral antagonist |
| Cc1c(C(=O)c2ccc(F)cc2)nn(-c2ccc(Cl)cc2Cl)c1-c1ccc(Cl)cc1 [ABD450] | 63.2 | Neutral antagonist | – | – |
| Cc1c(C(=O)c2cccc(F)c2)nn(-c2ccc(Cl)cc2Cl)c1-c1ccc(Cl)cc1 [ABD453] | 13.8 | Neutral antagonist | – | – |
| Cc1c(C(=O)c2cccc(OC(F)(F)F)c2)nn(-c2ccc(Cl)cc2Cl)c1-c1ccc(Cl)cc1 [ABD454] | 26.7 | Neutral antagonist | – | – |
| COc1ccc(C(=O)c2nn(-c3ccc(Cl)cc3Cl)c(-c3ccc(Br)cc3)c2C)cc1 [ABD459] | 8.6 | Neutral antagonist | – | – |
| Cc1c(C(=O)NN2CCCCC2)nn(-c2ccc(Cl)cc2Cl)c1-c1ccc(Cl)cc1 [SR141716A, N-(piperidin-1-yl)-5-(4-chlorophenyl)-1-(2,4-dichlorophenyl)-4-methyl-1H-pyrazole-3-carboxamide] | – | – | – | Body weight lost each year [6]: 5-10%; First year drop-out rate due to side effects [6]: 40-50% |
